# In patent US9393198B2 (SIGNPATH PHARMA INC., priority 2010, dated 2016):
# Key:
# PC12 cells = conditions: cultured PC12 cells; cited from earlier work
# [1] = system: sodium arsenite neuro-behavioral neurotransmission toxicity; conditions: rats, arsenite 20 mg/kg for 28 days; oral curcumin 100 mg/kg daily × 28 days; cited from earlier work
# [2] = system: chronic unpredictable mild stress (CUMS); conditions: CUMS rats; cited from earlier work
# [3] = system: homocysteine directly injected into the hippocampus; conditions: intraperitoneal curcumin; cited from earlier work
# [4] = system: murine multipotent neural progenitor cells (NPC); conditions: cited from earlier work
# [5] = system: Alzheimer's Disease mice (ALCL3 orally and D-galactose IP for 90 days); conditions: cited from earlier work
# [6] = Brain tissue and plasma curcumin levels in rats after intravenous bolus injection (HPLC); format: in vivo, Sprague-Dawley rats; conditions: intravenous curcumin formulations
# 6-OHDA toxicity = conditions: rat; cited from earlier work
smiles,measurement,setting,value
"COc1cc(C=CC(=O)CC(=O)C=Cc2ccc(O)c(OC)c2)ccc1O [curcumin, 1,7-bis(4-hydroxy-3-methoxyphenyl)-1,6-heptadiene-3,5-dione]",Apoptosis induced by AlCl3,PC12 cells,inhibits apoptosis
same,Effect on arsenite-induced deleterious effects,[1],counteracted
same,Effect on chronic unpredictable mild stress (CUMS),[2],improves chronic unpredictable mild stress
same,Activity against homocysteine injected into the hippocampus,[3],neuroprotective activity
same,Concentration that decreases proliferation of NPCs and cancer cells,[4],> 10 µM
same,Concentration that inhibits neurogenesis and neuroplasticity,"[4]; hippocampus stem and neuronal progenitor cells, high concentration",10 µM
same,Concentration that enhances / stimulates hippocampal neurogenesis,"[4]; hippocampus stem and neuronal progenitor cells, low concentration",500 nM
same,Concentration that increases NPC proliferation,"[4]; ×24-48 h, NPC but not tumor cells",0.1 to 0.5 µM
same,"Memory ability, step-through test",[5],improves the memory ability
same,"Curcumin detectible in the hippocampus, brainstem and striatum, share of dose",[6],less than 0.5 % of the total injected dose
same,Effect on 6-OHDA toxicity in striatum and Substantia Nigrum,6-OHDA toxicity,protects
